Results on 1 molecule are retold here after patent publication US20110224221A1, “HEMATOPOIETIC PROTECTION AGAINST IONIZING RADIATION USING SELECTIVE CYCLIN-DEPENDENT KINASE 4/6 INHIBITORS” (priority 2008, published 2011).

“Also recorded” adds a separate entry of the source.

The test system of data set [1] is TyrRAS+Ink4a/Arf−/− melanoma. In words: Tumor growth in Tyr-RAS+Ink4a/Arf−/− melanoma GEMM under daily treatment. The data set is classed as in vivo, mice. From the text:
Animals: All mice were housed in accord with the University of North Carolina at Chapel Hill (UNC-CH) Institutional Animal Care and Use Committee. Young adult (6-12 weeks of age), virgin female C57B1/6 mice were purchased from Jackson Labs (Bar Harbor, Me., United States of America). C3H mice were obtained from Harlan Sprague-Dawley Inc. (Indianapolis, Ind., United States of America). Experiments on tumor-bearing TyrRAS+Ink4a/Arf−/− mice (see Chin et al., Genes & development, 11, 2822-2834 (1997)) were performed in animals fully backcrossed (N>10) to the FVB/n background. Mice were treated as previously described (see Ramsey et al., Cancer Res., 67, 4732-4741 (2007)) with PD 0332991 obtained from Pfizer Inc., (New York, N.Y., United States of America) given by oral gavage at a dose of 150 mg/kg body weight. TyrRAS+Ink4a/Arf−/− mice were serially observed until tumor development. When tumors were about 0.2 cm^2 in size, daily PD 0332991 treatment was begun. The data shown in FIGS. 2B and 2D were normalized to tumor size at the time of therapy initiation. Tumor-bearing mice were euthanized at the indicated times for morbidity, tumor ulceration, or tumor size >1.5 cm in diameter.
See Walker et al., Genes Chromosomes Cancer, 22, 157-163 (1998); and Daniotti et al., Oncogene, 23, 5968-5977 (2004). […]

For data set [2], the system named is TyrRAS+Ink4a/Arf−/− melanoma. In words: Tumor-bearing mice given 7.5 Gy TBI: tumor growth and mortality. In kind it is in vivo.
Description: Tumor growth with (open squares) or without (closed diamonds) a single dose of 6-acetyl-8-cyclopentyl-5-methyl-2-(5-piperazin-1-yl-pyridin-2-ylamino)-8H-pyrido-[2,3-d]-pyrimidin-7-one (PD0332991) administered 4 hours prior to 7.5 gray (Gy) total body irradiation (TBI). […] Error bars indicate standard error of the mean.
FIG. 2E is a set of Kaplan-Meyer survival curves showing overall mortality, tumor-specific mortality and mortality to radiation toxicity of tumor bearing mice treated with 7.5 gray (Gy) of total body irradiation (TBI) with (solid line, n=8) or without (dashed line n=11) 6-acetyl-8-cyclopentyl-5-methyl-2-(5-piperazin-1-yl-pyridin-2-ylamino)-8H-pyrido-[2,3-d]-pyrimidin-7-one (PD 0332991) treatment 4 hours prior to ionizing radiation (IR). P-values calculated using the log-rank test.
Young adult (6-12 weeks of age), virgin female C57B1/6 mice were purchased from Jackson Labs (Bar Harbor, Me., United States of America). […] Experiments on tumor-bearing TyrRAS+Ink4a/Arf−/− mice (see Chin et al., Genes & development, 11, 2822-2834 (1997)) were performed in animals fully backcrossed (N>10) to the FVB/n background. Mice were treated as previously described (see Ramsey et al., Cancer Res., 67, 4732-4741 (2007)) with PD 0332991 obtained from Pfizer Inc., (New York, N.Y., United States of America) given by oral gavage at a dose of 150 mg/kg body weight. TyrRAS+Ink4a/Arf−/− mice were serially observed until tumor development. When tumors were about 0.2 cm^2 in size, daily PD 0332991 treatment was begun. […] Tumor-bearing mice were euthanized at the indicated times for morbidity, tumor ulceration, or tumor size >1.5 cm in diameter.
The test system of data set [3] is TyrRAS+Ink4a/Arf−/− melanoma. The note with it: mouse, in vivo; cited from earlier work.
Another data set has as its system pancreatic islet. The note with it: same dose and schedule (150 mg/kg daily); cited from earlier work.
Data set [4] deals with mice exposed to total body irradiation. In words: Survival after total body irradiation (TBI). In kind it is in vivo. From the text: For TBI experiments, mice were irradiated using a ^137Cs source (AECL Gammacell 40 Irradiator, Atomic Energy of Canada Ltd, Mississauga, Ontario, Canada). Delivered doses were at or near the empirically determined LD90 of 7.5 Gy, consistent with prior studies. See Na Nakorn et al., J. Clin. Invest., 109, 1579-1585 (2002); Herodin et al., Blood, 101, 2609-2616 (2003); Uckun et al., Blood, 75, 638-645 (1990); and Wang et al., Proc. Natl. Acad. Sci., USA, 94, 14590-14595 (1997). Peripheral blood was collected using a tail vein nick for complete blood cells (CBCs) and analyzed with a HemaTrue analyzer (Heska Co., Loveland, Colo., United States of America).
Adult female C57Bl/6 mice were exposed to 6.5, 7.5, or 8.5 Gy with or without PD0332991 treatment and followed for 40 days post-TBI. The LD90 for IR was determined to be about 7.5 Gy. […] See FIGS. 14A for C3H and FIG. 2E for FVB/n. […] It appears that PQ resulting from transient CDK4/6 inhibition around the time of TBI enhances radioresistance in vivo.
More particularly, animals were given a CDK4/6 inhibitor at different times relative to TBI at the LD90. As radioprotection was observed when animals were treated with two doses pre- and one dose post-TBI (see FIGS. 13A-13B), further studies were undertaken to determine which of these doses was most important for radioprotection. Without being bound to any one theory, it appeared that most of the benefit of the treatment schedule was associated PD 0332991 treatment immediately prior to or contemporaneous with TBI. […] Although there are a few known compounds that protect from radiotoxicity when administered prior to IR (i.e. “radioprotectants”) (see Burdelya et al., Science, 320, 226-230 (2008); and Weiss and Landauer, Int J. Radiat. Biol., 85, 539-573 (2009)), previous to the presently disclosed subject matter, no known hematologic “radiomitigants” (i.e., compounds that reduce hematotoxicity when administered many hours after an exposure to TBI) are believed to have been reported.

Where [5] appears, read: treatment 4 hours prior to 7.5 Gy TBI.
The mark [6] stands for this setting: 8.5 Gy TBI, single dose four hours prior to IR.

For `CC(=O)c1c(C)c2cnc(Nc3ccc(N4CCNCC4)cn3)nc2n(C2CCCC2)c1=O` [PD0332991, 6-acetyl-8-cyclopentyl-5-methyl-2-(5-piperazin-1-yl-pyridin-2-ylamino)-8H-pyrido-[2,3-d]-pyrimidin-7-one], the “mice that developed new tumors while receiving treatment” value in data set [1] (150 mg/kg daily, in the 8-16 days) was “two of five”. In data set [1] (150 mg/kg oral gavage daily, tumor-bearing Tyr-RAS+Ink4a/Arf−/− mice), the “growth of established tumors” value was “no regression or decrease in tumor growth; also recorded: insensitive”. In addition, the “anti-tumor effect of therapeutic IR” value in data set [2] (single dose 4 hours prior to 7.5 Gy TBI) was “does not decrease that anti-tumor effect of therapeutic radiotherapy”. In addition, the “mortality to radiation toxicity” value in data set [2] (setting [5]) is reported as “does appear to provide protection from radiation toxicity”. For the same molecule, in data set [2] (setting [5]), the tumor-related mortality result is reported as “does not appear to increase tumor-related mortality”. In addition, the “tolerability of dose and schedule” value in data set [3] was “well tolerated without evident toxicity”. Further, the “proliferation in CDK4/6 dependent normal murine tissues such as the pancreatic islet” value with pancreatic islet is “abrogated proliferation”. Moreover, the survival entry in data set [4] (6.5 Gy) is listed as “All mice survived”; in data set [4] (7.5 Gy, C57Bl/6, followed 40 days post-TBI), “all treated mice survived”; in data set [4] (7.5 Gy, multiple doses around IR, within 40 days) it was about 100%; in data set [4] (7.5 Gy, single dose 4 hours prior to IR), “Enhanced survival; also recorded: survival similar to animals treated on the multi-dose”; in data set [4] (7.5 Gy, single dose 20 hours after TBI), “significantly enhanced”; in data set [4] (7.5 Gy, single time 0 dose), “survival similar to animals treated on the multi-dose”. Further, in data set [4] (setting [6]), the median survival worked out at 19 days. The term survival is on record as 13% in data set [4] (setting [6]) and “about 30%” in data set [4] (8.5 Gy TBI, single dose four hours prior to IR, listed as PD 0332991).
